Laboratory results published in PubChem BioAssay (NCI).
“And” between values parts separate entries of the source, which are not always exact repeats. Equal entries are not always repeated.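 Values below derive from 48-hour exposures of cells grown in 96-well plates, with endpoints linearly interpolated between the two concentrations bracketing the appropriate inhibition level. GI50 = concentration required for 50% inhibition of growth. TGI: total growth inhibition.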

Tests used:
Test in all cases: NCI anticancer screen, dose series, 48 h
NCI-H23 lung = system: NCI-H23 lung
SK-OV-3 ovarian = system: SK-OV-3 ovarian
SW-620 colon = system: SW-620 colon
RXF 393 renal = system: RXF 393 renal
SF-539 CNS = system: SF-539 CNS
COLO 205 colon = system: COLO 205 colon
HOP-92 NSCLC = system: HOP-92 NSCLC
MDA-MB-435 = system: MDA-MB-435
HCT-15 colon = system: HCT-15 colon
KM12 colon = system: KM12 colon

SMILES	GI50 (NCI-H23 lung)	TGI (NCI-H23 lung)	GI50 (SK-OV-3 ovarian)	TGI (SK-OV-3 ovarian)	GI50 (SW-620 colon)	TGI (SW-620 colon)	GI50 (RXF 393 renal)	TGI (RXF 393 renal)	GI50 (SF-539 CNS)	TGI (SF-539 CNS)	GI50 (COLO 205 colon)	TGI (HOP-92 NSCLC)	GI50 (MDA-MB-435)	TGI (MDA-MB-435)	GI50 (HCT-15 colon)	TGI (HCT-15 colon)	GI50 (KM12 colon)	TGI (KM12 colon)	TGI (COLO 205 colon)	GI50 (HOP-92 NSCLC)
CON(C)C(=O)N1N=C(c2cc(F)ccc2F)SC1(CCCN)c1ccccc1 (stereo not drawn)	0.0936 µM and < 0.01 µM	21.9 µM and 14.8 µM	< 0.01 µM	12.6 µM and 12.8 µM	< 0.01 µM	15.6 µM and 16 µM	< 0.01 µM	0.756 µM	0.027 µM	0.351 µM	< 0.01 µM	10.2 µM and 15 µM	< 0.01 µM	< 0.01 µM	0.0485 µM and < 0.01 µM	15.9 µM and 17.6 µM	0.028 µM and < 0.01 µM	13.5 µM and 12.9 µM		
COc1cc2c3c(n(C)c(=O)c2cc1OC)-c1cc2c(cc1/C3=C\CNCCCN)OCO2	0.437 µM	3.15 µM	1.26 µM	> 88.2 µM	0.222 µM	3.94 µM	1.69 µM	7.1 µM	0.834 µM	7.29 µM	0.232 µM	1.27 µM	1.02 µM	5.72 µM	3.13 µM	17.7 µM	0.359 µM	3.93 µM	8.71 µM	0.174 µM
